Legend:
solubility = assay type: physicochemical
Experimental: The compound according to the present invention, viz. 3-(2,2,2-trimethylhydrazinium)propionate comprises a colourless crystalline powder with a melting point of 254°-256° C. (from ethanol). […] (p.p.m.): 6.70 singlet, (CH3)3 N; 6.89, triplet, CH2,

in vivo = assay: in vivo; parameters: species or system white mice; conditions: mouse, ip
Experimental: (§1) The toxicological study of 3-(2,2,2-trimethylhydrazinium)-propionate on white mice weighing 20-25 g has shown that with a single peroral administration to the animals in doses of up to 23,000 mg/kg the preparation causes no death of the animals.

white mice = assay: in vivo; conditions: mouse
Experimental: as §1

animals and fowl = assay: specific (growth-stimulating) activity on animals and fowl, general; assay type: in vivo
Text: (§2) The study of specific activity of 3-(2,2,2-trimethylhydrazinium)-propionatewas effected on various animals: mice, rats, pigs, cattle, chickens, goslings, turkey poults and ducklings. The growth-controlling activity of this compound relative to plats has been studied on barley, oats, rye and wheat.

[1] = test system: barley, oats, rye and wheat; assay: growth-controlling activity on plants; assay type: in vivo
Text: as §2

chicks [2] = assay: growth stimulator efficiency in chicks, 0.02% in feedstuff (Example 6, Table 1); assay type: in vivo; conditions: 0.02% by weight in feedstuff
Experimental: (§3) The growth stimulator for animals and fowl containing 3-(2,2,2-trimethylhydrazinium)-propionate as the active principle is tested for efficiency. The test is conducted in chicks of 6 days of age, the test group consisting of 50 chicks and the control group--50 chicks. The test chicks were fed with a feedstuff containing 0.02% by weight of the active principle, the control group--only basic diet without the addition of the active principle. The chicks' diet contained, % by weight: barley--20, wheat--6, corn--40, sunflower and soya-bean grist--19, fish flour--7, meat-bone flour--3, yeast--5. One kilogram of the feedstuff contained 1.25 feeding unit, 3,135 kCal of exchange energy, 21% of a crude protein, 4% of crude cellulose and 197 g of digestable protein.

chicks [3] = assay: growth stimulant efficiency in chicks, 0.04% in feedstuff (Example 7, Table 2); assay type: in vivo; conditions: 0.04% by weight in feedstuff
Experimental: as §3
The experiment for testing efficiency of the growth stimulant for animals and fowl according to the present invention was carried out following the procedure similar to that described in the foregoing Example 6; added to the feedstuff was 0.04% by weight of the active principle based on the feedstuff weight. By the end of the 34-days' period the chicks of the test groups fed with the growth stimulant were 12.9% heavier.

[4] = test system: microbless pig mini-sucklings; assay: growth stimulant efficiency in microbless pig mini-sucklings (Example 8, Table 3); assay type: in vivo
Experimental: The efficiency of the growth stimulant for animals according to the present invention was tested in feeding of microbless animals. The test was carried out in microbless pig mini-sucklings grown without under sterile conditions in a comparison with pig mini sucklings grown keeping to the requirements of sterile conditions, since birth and to the age of two-months, a feedstuff containing 0.04% by weight of the active principle. Their growth was compared to that of 10 sucklings grown without keeping to sterility conditions and the development of 7 microbless pig sucklings. By the end of the experiment the test pig sucklings were 17.2% heavier than the microbless pig sucklings given no growth stimulant and 18.2% heavier than the sucklings grown under nonsterile conditions and given no growth stimulator.

white-breed young pigs = assay: growth stimulator efficiency in white-breed young pigs (Example 9, Table 4); assay type: in vivo, pig; conditions: 0.02% by weight, 122 days
Experimental: The efficiency of the growth stimulator was tested on white-breed young pigs deprived of mother's milk with the body weight of about 20 kg, […], in each group.
The young pigs were in the same pig sty and serviced by one operator; all of the animals were on the same diet consisting of barley flour, green mass of a vetch-oat mixture and whey. The animals were fed two times a day with free watering. To the feedstuff of the test group there were added 200 mg of 3-(2,2,2-trimethylhydrazinium)propionate per 1 kg of dry substance of the feed-stuff (0.02% by weight of the active principle).

young rats = assay: growth stimulator efficiency in young rats (Example 10, Table 5); assay type: in vivo, rat
Experimental: (§4) The efficiency of the growth stimulator was studied on young rats. The experiment was carried out with nondescript young rats weighting about 75 g in groups of 30 animals in each. The growth stimulator was administered perorally to each rat as an aqueous solution at a rate of from 0.1 to 0.001% by weight of the consumed daily diet. The administration of the growth stimulator was effected every day during 10 days. The observation period was 20 days; the rats were weighed after every 4 days. […] On completion of the experiment the animals were killed and the parenchymatous organs and peripheral blood were analyzed.

pubertal rats = assay: growth stimulator efficiency in pubertal rats (Example 11, Table 6); assay type: in vivo, rat
Experimental: as §4
The growth stimulator efficiency was studied on pubertal rats. The experiment conditions were similar to those described in the foregoing Example 10.

[5] = 0.001% of the active principle, day 4
[6] = 0.001% of the active principle, day 8
[7] = 0.001% of the active principle, day 12
[8] = 0.001% of the active principle, day 16
[9] = 0.001% of the active principle, day 20
[10] = 0.01% of the active principle, day 4
[11] = 0.01% of the active principle, day 8
[12] = 0.01% of the active principle, day 12
[13] = 0.01% of the active principle, day 16
[14] = 0.01% of the active principle, day 20

C[N+](C)(C)NCCC(=O)[O-] [3-(2,2,2-trimethylhydrazinium)-propionate]
solubility in ethanol and methanol (solubility; ethanol and methanol): well soluble | solubility in water (solubility; water): very readily soluble | NOAEL (in vivo): ≥ 10000 mg/kg | single peroral dose causing no death of the animals (white mice): up to 23,000 mg/kg | growth-stimulating activity (animals and fowl; animals and fowl): clearly pronounced growth-stimulating activity | daily weight gain (animals and fowl; depending on the variety of animals and fowl): 8-24% | metabolism (animals and fowl; test animals and fowl): metabolism is improved | reduction of the rate of feedstock consumption per weight gain unit (animals and fowl; test animals and fowl): 7-15% | specific gravity of grain crops ([1]; grain crops): increased | yield gain of crops ([1]; grain crops): 15-30% | increase in the stem diameter of crops ([1]; oats, barley, rye, wheat): 15% | stability against lodging ([1]; oats, barley, rye, wheat): improving their stability against lodging | growth-controlling effect ([1]; plants): clearly pronounced growth-controlling effect | Average body weight of chicks, aged 30 days (chicks [2]): 289.4 g | weight gain compared to the control chicks (chicks [2]; 34 days): 7.7% | Average gain for the test time (chicks [2]; 34 days, control 364.5 ± 10.1): 392.7 | Average body weight of chicks, aged 40 days (chicks [2]; end of 34 days, control 412.2 g): 440.5 g | Average body weight of chicks, aged 6 days (chicks [2]; test beginning (6 days of age)): 47.8 g | Percentage to the control (chicks [2]; average gain, control = 100.0): 107.7% | chicks heavier by the end of the 34-days' period (chicks [3]): 12.9% | Average body weight of chicks, aged 30 days (chicks [3]; control 261.9): 268.9 g | Average mass gain for the test time (chicks [3]; control 313 ± 3): 353 ± 8 g | Average body weight of chicks, aged 40 days (chicks [3]; control 364.3): 404.8 g | Average body weight of chicks, aged 6 days (chicks [3]; test beginning): 51.0 g | Percentage to the control (chicks [3]; mass gain, control = 100.0): 112.9% | heavier than the microbless pig sucklings given no growth stimulant ([4]; 0.04% by weight, 2 months' age): 17.2% | heavier than the sucklings grown under nonsterile conditions and given no growth stimulator ([4]; 0.04% by weight, 2 months' age): 18.2% | Animal weight at the 2-months' age ([4]; microbless mini-pigs, 0.04% by weight of feedstuff, untreated microbless 3,271 ± 385, ordinary 3,244 ± 335): 3,833 ± 348 g | Average daily weight gain, percent of the control (white-breed young pigs): 112.4% of the control | Feedstuff consumption per 1 kg of the body weight gain, % of control (white-breed young pigs): 92.9 % of control | weight gain higher as compared to the control group animals (white-breed young pigs): 7.4 kg | Feedstuff consumption per 1 kg of the body weight gain (white-breed young pigs; control 4.38): 4.07 feeding units | Body weight gain during the test period (white-breed young pigs; control 59.0 ± 2.1): 66.4 ± 3.6 kg | Average body weight by the test end (white-breed young pigs; control 74.0 ± 3.2): 88.2 ± 4.0 kg | Feedstuff consumption during the test period (white-breed young pigs; control 285.5): 270.7 feeding units | Average daily weight gain (white-breed young pigs; control 484 ± 17): 544 ± 32 g | reduction of consumption of feeding units per kilogram of the weight gain (white-breed young pigs; vs control): 7.1% | increase of body weight gain of the rats (young rats; 0.001% by weight of the daily diet): 12.5% | Weight on the day of weighing (young rats; [5]): 76 g | Weight on the day of weighing (young rats; [6]): 99 g | Weight on the day of weighing (young rats; [7]): 131 g | Weight on the day of weighing (young rats; [8]): 154 g | Weight on the day of weighing (young rats; [9]): 164 g | increase of body weight gain of the rats (young rats; 0.01% by weight of the daily diet): 12% | Weight on the day of weighing (young rats; [10]): 79 g | Weight on the day of weighing (young rats; [11]): 93 g | Weight on the day of weighing (young rats; [12]): 125 g | Weight on the day of weighing (young rats; [13]): 139 g | Weight on the day of weighing (young rats; [14]): 158 g | effect on weight gain of the rats (young rats; 0.1% by weight of the daily diet): substantially did not affect the weight gain | Weight on the day of weighing (young rats; 0.1% of the active principle, day 4): 76 g | Weight on the day of weighing (young rats; 0.1% of the active principle, day 8): 95 g | Weight on the day of weighing (young rats; 0.1% of the active principle, day 12): 98 g | Weight on the day of weighing (young rats; 0.1% of the active principle, day 16): 107 g | Weight on the day of weighing (young rats; 0.1% of the active principle, day 20): 129 g | pathology of parenchymatous organs and peripheral blood (young rats; 0.1 to 0.001% by weight of the daily diet, perorally 10 days): No pathology was observed | Weight on the weighing day (pubertal rats; [5]): 175 g | Weight on the weighing day (pubertal rats; [6]): 189 g | Weight on the weighing day (pubertal rats; [7]): 210 g | Weight on the weighing day (pubertal rats; [8]): 231 g | Weight on the weighing day (pubertal rats; [9]): 248 g | Weight on the weighing day (pubertal rats; [10]): 169 g | Weight on the weighing day (pubertal rats; [11]): 175 g | Weight on the weighing day (pubertal rats; [12]): 189 g | Weight on the weighing day (pubertal rats; [13]): 215 g | Weight on the weighing day (pubertal rats; [14]): 229 g | Weight on the weighing day (pubertal rats; 0.1% of the principle, day 4): 155 g | Weight on the weighing day (pubertal rats; 0.1% of the principle, day 8): 161 g | Weight on the weighing day (pubertal rats; 0.1% of the principle, day 12): 174 g | Weight on the weighing day (pubertal rats; 0.1% of the principle, day 16): 187 g | Weight on the weighing day (pubertal rats; 0.1% of the principle, day 20): 203 g | body weight gain (pubertal rats; active principle 0.001% by weight of the dry feedstuff): 13.5% | body weight gain (pubertal rats; active principle 0.101% (so in the source) by weight of the dry feedstuff): 9%
